Laboratory results: paper PMC6100385, “Irinotecan and Δ^9-Tetrahydrocannabinol Interactions in Rat Liver: A Preliminary Evaluation Using Biochemical and Genotoxicity Markers” (Molecules : A Journal of Synthetic Chemistry and Natural …, 2018)

Experiments:
[1] = cited from earlier work
[2] = system: liver cells of rats; parameters: method as in PMID 19663821; settings: 24 h and 72 h; eleven-fold lower IRI dose than tested here; cited from earlier work
[3] = system: humans; parameters: method as in PMID 11489791; settings: cited from earlier work
[4] = system: liver of rats; assay: Lipid peroxidation (TBARS) in the liver; assay type: in vivo, rat
Protocol: The concentration of thiobarbituric reactive substances (TBARS), as a measure of lipid peroxidation, was determined using a modification of the method by Drury et al.. Butylated hydroxytoluene (BHT; 5 µL; 0.2% w/v) and phosphoric acid (750 µL; 1% v/v) were added to 50 µL samples. After mixing, 250 µL 0.6% (w/w) thiobarbituric acid (TBA) and 445 µL H2O were added and the reaction mixture was incubated in a water bath at 90 °C for 30 min. The mixture was cooled and absorbance was measured at 532 nm on a Shimadzu UV Probe Spectrophotometer (Kyoto, Japan). The concentration of TBARS was calculated using standard curves of increasing 1,1,3,3-tetramethoxypropane concentrations, and expressed as µmol/L.

[5] = system: liver of rats; assay: Superoxide dismutase (SOD) activity in the liver; assay type: in vivo, rat; settings: after 3 days
Protocol: Total superoxide dismutase (SOD) activity was measured spectrophotometrically according to Flohé and Ötting. The reduction rate of cytochrome c by superoxide radicals was monitored at 550 nm utilizing the xanthine–xanthine oxidase system as the source for O2^•−. SOD competed for the superoxide and decreased the reduction rate of cytochrome c. One unit of SOD was defined as the amount of enzyme that inhibits the rate of cytochrome c reduction by 50%. Enzyme activity was expressed as IU/gprotein.
(§1) Determination of protein concentration was carried out according to the method by Bradford using bovine serum albumin as standard.

[6] = system: male Wistar rats; assay: Survival and clinical signs of intoxication; assay type: in vivo, rat; settings: IRI 100 mg/kg b.w. i.p. once; own observations same as literature
Protocol: A total of 60 rats were randomly assigned to the following four groups. Group 1: control rats were given the same daily volume of the vehicle sesame oil as the THC-treated group. […] Group 3: rats orally administered THC dissolved in sesame oil at a daily dose of 7 mg/kg b.w. for one, three and seven days, respectively. […] Each group comprised 5 animals with minimal weight variation (300 g ± 10%).
Rats had free access to food and drinking water. Their body weights were regularly monitored and the doses of THC were adjusted accordingly. Survival and clinical signs of intoxication were also evaluated on a daily basis.

[7] = system: CDF1 mice; parameters: method as in PMID 9247609; settings: i.p. at 100 mg/kg for six days; cited from earlier work
[8] = system: rats; settings: cited from earlier work
[9] = system: hepatocytes of male Wistar rats; assay: Alkaline comet assay, primary DNA damage; assay type: in vivo, rat
Protocol: The obtained cellular suspension was immediately used for preparation of agarose microgels.
To prepare agarose microgels, we used fully frosted precleaned microscope slides (Surgipath®, Cambridgeshire, UK) precoated with 0.6% normal melting point (NMP) agarose. Suspensions of liver cells (V = 10 µL per slide) were mixed with 0.5% low melting point (LMP) agarose, placed on slides and covered with a top layer of 0.5% LMP agarose. The microgels were lysed overnight at 4 °C in a freshly prepared buffer (2.5 mol/L NaCl (Kemika, Zagreb, Croatia), 100 mmol/L Na2EDTA, 10 mmol/L Tris-HCl, 1% Na-laurylsarcosinate, pH = 10) with 1% Triton X-100 and 10% dimethyl sulfoxide (Kemika, Zagreb, Croatia). After lysis, microgels were denatured (20 min) in alkaline denaturation/electrophoresis buffer (300 mM NaOH (Kemika, Zagreb, Croatia) and 1 mM Na2EDTA, pH > 13). Electrophoresis lasted for 20 min, at 4 °C, 25 V, and 300 mA. The microgels were then neutralised using a Tris-HCl buffer (0.4 mol/L; pH = 7.5). Before microscopic analysis, the slides were stained with ethidium bromide (20 µg/mL). They were analysed using an epifluorescence microscope (Olympus BX50, Tokyo, Japan) equipped with appropriate filters, at 200× magnification. The level of DNA damage in individual cells was estimated using Comet Assay IV™ software (Instem-Perceptive Instruments Ltd., Suffolk, Halstead, UK). One well-trained scorer performed all of the comet measurements on the coded/blinded slides. Random fields were selected and the comets were captured at a constant depth of the gel, avoiding edges and occasional dead cells. A total of 200 comets per rat were measured on replicate slides in two independent evaluations (altogether 1000 individual comet measurements per each experimental group were performed). Tail length (presented in micrometres) and tail intensity (i.e., DNA% in tail) were chosen as indicators of DNA damage.

[10] = low doses (<5 µg/mL or <5 µmol/L, or <1 joint/day); cited from earlier work
[11] = system: Sprague-Dawley rats; settings: 3 mg/kg b.w. i.p. for seven days; cited from earlier work
[12] = system: liver of rats; assay: Catalase (CAT) activity in the liver; assay type: in vivo, rat; settings: one day after application, single dose
Protocol: Catalase activity was measured at 25 °C, pH 7.0, at 240 nm. Enzyme activity was calculated using the molar extinction coefficient ([…]), and expressed as IU/gprotein.
as §1

[13] = system: male Wistar rats; assay: Serum markers of liver function, overall; assay type: in vivo, rat; settings: 1-, 3-, 7-day treatments
Protocol: (§2) Serum biochemical parameters included AST, ALT, bilirubin, ALP, and total protein. These were determined using a chemical analyser (Beckman Coulter AU 480; Brea, CA, USA). Activities of AST, ALT, and ALP were expressed as U/L. The amount of total protein was expressed as g/L. Bilirubin concentration (total bilirubin) was expressed as µmol/L.

[14] = system: male Wistar rats; settings: THC 7 mg/kg b.w. p.o.; all three timepoints
Protocol: as §2

[15] = system: male Wistar rats; settings: THC p.o.; days 1 and 3
Protocol: as §2

[16] = system: male Wistar rats; assay: Serum bilirubin (total bilirubin); assay type: in vivo, rat; settings: seven days of continuous intake
Protocol: as §2

[17] = system: male Wistar rats; assay: Serum alanine aminotransferase (ALT) activity; assay type: in vivo, rat
Protocol: as §2

CCc1c2c(nc3ccc(OC(=O)N4CCC(N)CC4)cc13)-c1cc3c(c(=O)n1C2)COC(=O)[C@]3(O)CC [NPC, 7-ethyl-10-[4-(1-piperidino)-1-amino]-carbonyloxycamptothecin]
cytotoxic potential [1]: significantly lower cytotoxic potential

CCc1c2c(nc3ccc(OC(=O)N4CCC(NCCCCC(=O)O)CC4)cc13)-c1cc3c(c(=O)n1C2)COC(=O)C3(O)CC (stereo not drawn) [APC, 7-ethyl-10-[4-N-(5-aminopentanoic acid)-1-piperidino]carbonyloxycamptothecin]
cytotoxic potential [1]: significantly lower cytotoxic potential

CCc1c2c(nc3ccc(OC(=O)N4CCC(N5CCCCC5)CC4)cc13)-c1cc3c(c(=O)n1C2)COC(=O)[C@]3(O)CC [IRI, 7-ethyl-10-[4-(1-piperidino)-1-piperidino] carbonyloxycamptothecin]
primary DNA damage in liver cells [2]: significant increase | maximal and recommended tolerated human doses [3]: 10–30 mg/m^2/day | TBARS concentration in liver, IRI-treated vs control ([4]; 3- and 7-day timepoints): not significant | TBARS concentration in liver (lipid peroxidation), rank among groups ([4]; one day following application): highest level of lipid peroxidation | SOD activity in liver vs control [5]: significantly higher | severe diarrhoea and gastrointestinal toxicity [6]: did not result with severe diarrhoea and gastrointestinal toxicity | lipid peroxidation in the liver [7]: increases of IRI-potentiated lipid peroxidation | maximum tolerated dose for rats ([8]; per week): 100 mg/kg b.w. | mortality and gastrointestinal mucositis ([8]; single dose of 200 mg/kg): low mortality, but caused reproducible gastrointestinal mucositis | comet tail intensity, mean, vs control and THC groups ([9]; 1-day treatment): significantly increased | comet tail length, mean, vs control and THC groups ([9]; 1-day treatment): significantly increased | comet tail intensity, mean, vs control and THC groups ([9]; 3-day treatment): significantly increased | comet tail length, mean, vs control and THC groups ([9]; 3-day treatment): significantly increased | comet tail intensity, mean, rank among groups ([9]; 7-day treatment): highest mean value | DNA damage, rank among groups ([9]; all timepoints): highest DNA damage | primary DNA damage, 1-day vs 3 days ([9]; single IRI): lower than after 3 days | level of DNA damage with prolonged treatment duration ([9]; single IRI, seven days): slightly diminished

CCc1c2c(nc3ccc(O)cc13)-c1cc3c(c(=O)n1C2)COC(=O)[C@]3(O)CC [SN-38]
cytotoxicity relative to the parent compound (IRI) [1]: 100–1000 fold

CCCCCc1cc(O)c2c(c1)OC(C)(C)C1CCC(C)=CC21 (stereo not drawn) [THC, Δ^9-tetrahydrocannabinol]
genotoxic adverse outcomes [10]: usually not associated with genotoxic adverse outcomes | lipid peroxidation in the liver [11]: slightly elevated | liver CAT activity vs control rats [11]: decreased | liver SOD activity vs control rats [11]: non-significant decrease | CAT activity in liver vs control and IRI-treated rats [12]: significantly increased | liver function / serum liver markers, overall [13]: affected ALP and AP levels more than single IRI | AST activity in serum, trend [14]: trend towards increased AST activity | ALP level in serum [15]: increased | serum bilirubin level vs single IRI and combined treatment [16]: higher | ALT activity in serum vs IRI-treated rats ([17]; 3-day exposure): statistically significant increase | ALT level in serum ([17]; THC p.o., day 3): somewhat increased | comet tail length, mean ([9]; continuous 7-day oral exposure, compared to shorter treatments): significantly higher mean value of tail length | risk for genotoxicity ([9]; shorter exposures (1-, 3-day) to THC p.o.): not associated with a significant risk for genotoxicity
